The values below come from patent US10463651B2, “3-(1H-pyrrolo[3,2-C]pyridin-2-YL)-1H-indazoles and therapeutic uses thereof” (Samumed, LLC, priority 2015, dated 2019).

Common to all, as to type: cell-based
Experiment [1] deals with primary human mesenchymal stem cells (hMSCs). The experiment is described as follows: Induction of chondrogenesis in hMSCs (Rhodamine B / Nile Red nodule imaging). The conditions noted are these: for Emax: maximum activity relative to TGF-β3 (10 ng/mL) positive control, read-out: Max. Activity as % TGF-β3 activity; for EC50: concentration required to induce 50% levels of chondrogenesis vs TGF-β3 positive control, read-out: Conc (nM) of 50% TGF-β3 activity. From the text:
Representative compounds were screened using primary human mesenchymal stem cells (hMSCs) to determine their ability to induce chondrogenesis (process by which cartilage is developed).
Primary human mesenchymal stem cells (hMSCs) were purchased from Lonza (Walkersville, Md.) and expanded in Mesenchymal Stem Cell Growth Media (Lonza). Cells between passage 3 and 6 were used for the experiments.
Area of nodules in each well was normalized to the average of 3 DMSO treated wells on the same plate using Excel (Microsoft Inc.). The normalized averages (fold change over DMSO) of 2 or 3 replicate wells for each compound concentration were calculated. Due to solubility limitations of some of the compounds, curve fitting was incomplete leading to inaccurate EC50 determinations.
Using TGF-β3 as a positive control, the concentration of representative compounds required to induce 50% levels of chondrogenesis is reported. In addition, the maximum activity of each compound and the respective dose that each compound reached maximum chondrogenesis activity is reported.

Experiment [2] deals with primary human fibroblasts derived from IPF patients (LL29 cells) treated with TGF-β1. Put plainly: Inhibition of the fibrotic process (αSMA staining) in TGF-β1-treated fibroblasts. The conditions noted are these: Fibroblast, 96 h; for EC50: % αSMA-positive LL29 cells, TGF-β1 20 ng/mL, 4 days; for inhibition at 10 µM: read-out: percent inhibition at 10 μM. The protocol: Representative compounds were screened using primary human fibroblasts (derived from IPF patients) treated with TGF-β1 to determine their ability to inhibit the fibrotic process.
LL29 cells are plated at 1,500 cells/well in 80 μL/well F12 medium supplemented with 1% Fetal Bovine Serum. […] Wells treated with TGF-P1 and containing DMSO were used as controls. […] Following incubation for 4 days, SYTOX green nucleic acid stain (Life Technologies [Thermo Fisher Scientific]) was added to the wells at a final concentration of 1 μM and incubated at room temperature for 30 min.

For the next experiment, the system named is SW480 colon cancer cells. The experiment is described as follows: Cell viability assay (CellTiter-Blue). Particulars: Homo sapiens, 96 h; SW480 cell viability, four days, CellTiter-Blue. The protocol: Representative compounds were screened using the following assay procedure to assess the effect on cell viability as described below.
Approximately 2×10^3 SW480 colon cancer cells were seeded into each well and allowed to incubate in the presence or absence of compound for four days at 37° C./5% CO2. Eight replicates of DMSO-treated cells served as controls and cells treated with compound were performed in duplicate.
After incubation, 20 μL of CellTiter-Blue (Promega) was added to each well allowed to incubate for approximately 3 hours. This reagent was a buffered solution which contains resazurin, metabolically active cells were able to reduce rezarurin (blue) into resorufin (pink) which was highly fluorescent. This measured fluorescence was used as a readout for cell viability.

For experiment [3], the system named is Wnt activity (Sp5-Luc reporter, SW480 colon carcinoma cells). Put plainly: Screening assay for Wnt activity (Sp5-Luc reporter gene assay in SW480 cells). The conditions noted are these: Homo sapiens; Sp5-Luc reporter, SW480 cells, incubated overnight. From the text:
The screening assay for Wnt activity is described as follows. Reporter cell lines can be generated by stably transducing cancer cell lines (e.g., colon cancer) or primary cells (e.g., IEC-6 intestinal cells) with a lentiviral construct that includes a Wnt-responsive promoter driving expression of the firefly luciferase gene.
SW480 colon carcinoma cells were transduced with a lentiviral vector expressing luciferase with a human Sp5 promoter consisting of a sequence of eight TCF/LEF binding sites. SW480 cells stably expressing the Sp5-Luc reporter gene and a hygromycin resistance gene were selected by treatment with 150 μg/mL of hygromycin for 7 days. These stably transduced SW480 cells were expanded in cell culture and used for all further screening activities. […] For Sp5-Luc reporter gene assays, the cells were plated at 4,000 cells/well in 384-well plates with medium containing 1% fetal bovine serum and incubated overnight at 37° C. and 5% CO2. Following incubation, 20 μl of BrightGlo luminescence reagent (Promega) was added to each well of the 384-well assay plates. The plates were placed on an orbital shaker for 2 min and then luminescence was quantified using the Envision (Perkin Elmer) plate reader. Readings were normalized to DMSO only treated cells, and normalized activities were utilized for EC50 calculations using the dose-response log (inhibitor) vs. response-variable slope (four parameters) nonlinear regression feature available in GraphPad Prism 5.0 (or Dotmatics).
In general terms: A reporter such as luciferase makes a cellular process visible.

Another experiment deals with IL-6 (THP-1 cells). Put plainly: IL-6 inhibition in LPS-stimulated THP-1 cells (HTRF). Particulars: Homo sapiens; for EC50: IL6 by HTRF, THP-1 cells, 500 ng/mL LPS, 22 hours. As for the experimental part: THP-1 cells were cultured in basal media with 1% FBS for 24 hours before the start of the assay. […] THP-1 cells were plated at 5000 cells/well in the 384-well plates and incubated at 37° C. for 2 h. 500 ng/mL of LPS was added after 2 hours and cells were incubated for another 22 hours at 37° C. Plates were spun in a centrifuge for 1 minute at […] and a mixture of anti-IL6 XL665, and anti-IL6 Cryptate diluted in reconstitution buffer (Cisbio Inc.) was added to each well. Following incubation for 3 hrs at room temperature, Homogeneous Time-Resolved Fluorescence (HTRF) was measured using the Envision (Perkin Elmer) at 665 nm and […]. The ratio of fluorescence at 665 nm to 620 nm was used as a readout for IL6 quantification. All samples were processed in duplicate. Readings were normalized to DMSO treated cells and normalized activities were utilized for EC50 calculations using the dose-response log (inhibitor) vs. response-variable slope (four parameters) nonlinear regression feature available in GraphPad Prism 5.0 (or Dotmatics).
On the technique in general: In TR-FRET formats the signal depends on donor and acceptor labels being close together.

With `CCC(=O)Nc1cncc(-c2ccc3[nH]nc(-c4cc5c(-c6cccc(F)c6)nccc5[nH]4)c3c2)c1` [Compound 1, N-(5-(3-(4-(3-Fluorophenyl)-1H-pyrrolo[3,2-c]pyridin-2-yl)-1H-indazol-5-yl)pyridin-3-yl)propionamide], the Emax in experiment [1] stood at 16%. Besides, the EC50 worked out at 41 nM in experiment [2], 102 nM with SW480 colon cancer cells, 45 nM in experiment [3] and 35 nM with IL-6 (THP-1 cells).

Take `Fc1cccc(-c2nccc3[nH]c(-c4n[nH]c5ccc(-c6cccnc6)cc45)cc23)c1` [Compound 4, 3-(4-(3-Fluorophenyl)-1H-pyrrolo[3,2-c]pyridin-2-yl)-5-(pyridin-3-yl)-1H-indazole]: in experiment [1], the Emax came to 32%. In addition, the EC50 in experiment [2] stood at 44 nM; with SW480 colon cancer cells, 453 nM; in experiment [3], 140 nM; in the experiment on IL-6 (THP-1 cells), 164 nM.

Take `CN(C)Cc1cncc(-c2ccc3[nH]nc(-c4cc5c(-c6cccc(F)c6)nccc5[nH]4)c3c2)c1` [Compound 13, 1-(5-(3-(4-(3-Fluorophenyl)-1H-pyrrolo[3,2-c]pyridin-2-yl)-1H-indazol-5-yl)pyridin-3-yl)-N,N-dimethylmethanamine]: in experiment [1], the Emax was determined as 42%. The EC50 in experiment [2] came to 2760 nM; in the experiment on SW480 colon cancer cells, 776 nM; in experiment [3], 2940 nM; in the experiment on IL-6 (THP-1 cells), 383 nM.

For the compound `CCCC(=O)Nc1cncc(-c2ccc3[nH]nc(-c4cc5c(-c6cccc(F)c6)nccc5[nH]4)c3c2)c1` [Compound 17, N-(5-(3-(4-(3-Fluorophenyl)-1H-pyrrolo[3,2-c]pyridin-2-yl)-1H-indazol-5-yl)pyridin-3-yl)butyramide], the EC50 in experiment [1] is 2700 nM; in experiment [2], 19 nM; with SW480 colon cancer cells it was 93 nM; in experiment [3], 50 nM; with IL-6 (THP-1 cells) it was 34 nM. In addition, in experiment [1], the Emax came to 106%.

Turning to `O=C(Nc1cncc(-c2ccc3[nH]nc(-c4cc5c(-c6cccc(F)c6)nccc5[nH]4)c3c2)c1)C1CC1` [Compound 20, N-(5-(3-(4-(3-Fluorophenyl)-1H-pyrrolo[3,2-c]pyridin-2-yl)-1H-indazol-5-yl)pyridin-3-yl)cyclopropanecarboxamide], the EC50 was determined as 2700 nM in experiment [1]; 167 nM in experiment [2]; 179 nM in the experiment with SW480 colon cancer cells; 50 nM in experiment [3]; 39 nM in the experiment on IL-6 (THP-1 cells). For the same compound, the Emax in experiment [1] is 91%.

For the compound `Fc1cccc(-c2nccc3[nH]c(-c4n[nH]c5ccc(-c6cncc(CN7CCC(F)(F)C7)c6)cc45)cc23)c1` [Compound 26, 5-(5-((3,3-Difluoropyrrolidin-1-yl)methyl)pyridin-3-yl)-3-(4-(3-fluorophenyl)-1H-pyrrolo[3,2-c]pyridin-2-yl)-1H-indazole], the EC50 in experiment [1] was found to be 10 nM; in experiment [2], 169 nM; with SW480 colon cancer cells, 293 nM; in experiment [3] it was 125 nM; in the experiment with IL-6 (THP-1 cells) it was 142 nM. The Emax in experiment [1] was determined as 228%.

One may read the inhibition as the share of the control response that was lost under treatment. Turning to `Fc1ccccc1-c1nccc2[nH]c(-c3n[nH]c4ccc(-c5cncc(OC6CCNCC6)c5)cc34)cc12` [Compound 544, 3-(4-(2-Fluorophenyl)-1H-pyrrolo[3,2-c]pyridin-2-yl)-5-(5-(piperidin-4-yloxy)pyridin-3-yl)-1H-indazole], the EC50 in experiment [2] was more than 10000 nM; in the experiment with SW480 colon cancer cells it was 2620 nM; in experiment [3], 2340 nM; with IL-6 (THP-1 cells), 2490 nM. For the same compound, in experiment [2], the inhibition at 10 µM was 0%.

As for `Cn1cc(-c2ccc3[nH]nc(-c4cc5c(-c6cccnc6)nccc5[nH]4)c3c2)cn1` [Compound 556, 5-(1-Methyl-1H-pyrazol-4-yl)-3-(4-(pyridin-3-yl)-1H-pyrrolo[3,2-c]pyridin-2-yl)-1H-indazole], the EC50 worked out at 29 nM in experiment [2], 448 nM in the experiment with SW480 colon cancer cells, 59 nM in experiment [3] and 90 nM with IL-6 (THP-1 cells).

Consider `NC1CN(c2cncc(-c3ccc4[nH]nc(-c5cc6c(N7CCCCC7)nccc6[nH]5)c4c3)n2)C1` [Compound 606, 1-(6-(3-(4-(Piperidin-1-yl)-1H-pyrrolo[3,2-c]pyridin-2-yl)-1H-indazol-5-yl)pyrazin-2-yl)azetidin-3-amine], for which the EC50 in experiment [2] was found to be 236 nM; in the experiment on SW480 colon cancer cells, 2780 nM; in experiment [3] it was 1760 nM; in the experiment on IL-6 (THP-1 cells) it was 66 nM.

Consider `c1cc2[nH]c(-c3n[nH]c4ccc(-c5cncc(OC6CCCCC6)c5)cc34)cc2c(N2CCCCC2)n1` [Compound 607, 5-(5-(Cyclohexyloxy)pyridin-3-yl)-3-(4-(piperidin-1-yl)-1H-pyrrolo[3,2-c]pyridin-2-yl)-1H-indazole], for which the EC50 in experiment [2] came out at 487 nM; with SW480 colon cancer cells it was 1500 nM; in experiment [3], 1140 nM; with IL-6 (THP-1 cells), 1050 nM.

With `COc1cncc(-c2ccc3[nH]nc(-c4cc5c(-c6ccc(C)s6)nccc5[nH]4)c3c2)c1` [Compound 740, 5-(5-Methoxypyridin-3-yl)-3-(4-(5-methylthiophen-2-yl)-1H-pyrrolo[3,2-c]pyridin-2-yl)-1H-indazole], the EC50 in experiment [2] is 445 nM; in the experiment on SW480 colon cancer cells, 1510 nM; in experiment [3] it was 1150 nM; in the experiment with IL-6 (THP-1 cells), 5410 nM.

For the compound `CS(=O)(=O)NCc1cc(F)cc(-c2nccc3[nH]c(-c4n[nH]c5ccc(-c6cncc(OCc7ccccc7)c6)cc45)cc23)c1` [Compound 774, N-(3-(2-(5-(5-(Benzyloxy)pyridin-3-yl)-1H-indazol-3-yl)-1H-pyrrolo[3,2-c]pyridin-4-yl)-5-fluorobenzyl)methanesulfonamide], the EC50 in experiment [2] is 2300 nM; in the experiment with SW480 colon cancer cells, 941 nM; in experiment [3], 1010 nM; in the experiment with IL-6 (THP-1 cells), more than 10000 nM. Further, in the experiment on IL-6 (THP-1 cells) (THP-1, read-out: percent inhibition at 10 M), the inhibition at 10 µM was 42.4%.

With `COc1cncc(-c2ccc3[nH]nc(-c4cc5c(-c6ccco6)nccc5[nH]4)c3c2)c1` [Compound 991, 3-(4-(Furan-2-yl)-1H-pyrrolo[3,2-c]pyridin-2-yl)-5-(5-methoxypyridin-3-yl)-1H-indazole], the Emax in experiment [1] was 36%. Further, the EC50 with SW480 colon cancer cells is 1500 nM; in experiment [3] it was 1010 nM; with IL-6 (THP-1 cells), 7620 nM.

With `Nc1cncc(-c2ccc3[nH]nc(-c4cc5c(N6CCCCC6)nccc5[nH]4)c3c2)n1` [Compound 992, 6-(3-(4-(Piperidin-1-yl)-1H-pyrrolo[3,2-c]pyridin-2-yl)-1H-indazol-5-yl) pyrazin-2-amine], the EC50 is more than 10000 nM in experiment [2], 546 nM in the experiment with SW480 colon cancer cells, 93 nM in experiment [3] and 93 nM in the experiment on IL-6 (THP-1 cells). Moreover, the inhibition at 10 µM in experiment [2] came to 0%.
